ChEMBL document CHEMBL1201861, “Genomics of Drug Sensitity in Cancer screening data, Wellcome Trust Sanger Institute”

Tests used:
Experiment in all cases: cells
CTB-1 = assay type: functional, cell-based, Homo sapiens; details: ctb-1
Description: SANGER: Inhibition of human CTB-1 cell growth in a cell viability assay.

DB = assay type: functional, cell-based, Homo sapiens; details: db
Description: SANGER: Inhibition of human DB cell growth in a cell viability assay.

DEL = assay type: functional, cell-based, Homo sapiens; details: del;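 note: growth inhibition of the human DEL cell line, read out with a cell viability assay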
Description: SANGER: Inhibition of human DEL cell growth in a cell viability assay.

EKVX = assay type: functional, cell-based, Homo sapiens; details: ekvx;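 note: growth inhibition of human EKVX cells, read out with a cell viability assay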
Description: SANGER: Inhibition of human EKVX cell growth in a cell viability assay.

ES5 = assay type: functional, cell-based, Homo sapiens; details: es5;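 note: growth inhibition of human ES5 cells, read out by a cell viability assay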
Description: SANGER: Inhibition of human ES5 cell growth in a cell viability assay.

EW-1 = assay type: functional, cell-based, Homo sapiens; details: ew-1;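 note: growth inhibition of the human EW-1 cell line, read out by a cell viability assay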
Description: SANGER: Inhibition of human EW-1 cell growth in a cell viability assay.

GAK = assay type: functional, cell-based, Homo sapiens; details: gak;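 note: cell growth inhibition read out by a cell viability assay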
Description: SANGER: Inhibition of human GAK cell growth in a cell viability assay.

GI-1 = assay type: functional, cell-based, Homo sapiens; details: gi-1;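 note: growth inhibition of human GI-1 cells, measured with a cell viability readout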
Description: SANGER: Inhibition of human GI-1 cell growth in a cell viability assay.

GOTO = assay type: functional, cell-based, Homo sapiens; details: goto;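 note: growth inhibition of GOTO cells, read out by a cell viability assay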
Description: SANGER: Inhibition of human GOTO cell growth in a cell viability assay.

HCC 2998 = assay type: functional, cell-based, Homo sapiens; details: hcc 2998;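 note: growth inhibition of human HCC2998 cells, measured with a cell viability read-out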
Description: SANGER: Inhibition of human HCC2998 cell growth in a cell viability assay.

HDLM-2 = assay type: functional, cell-based, Homo sapiens; details: hdlm-2;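 note: cell viability assay measuring suppression of HDLM-2 proliferation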
Description: SANGER: Inhibition of human HDLM-2 cell growth in a cell viability assay.

HuTu80 = assay type: functional, cell-based, Homo sapiens, HUTU-80; details: hutu-80;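 note: growth inhibition of HuTu80 human cells, determined with a cell viability readout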
Description: SANGER: Inhibition of human HUTU-80 cell growth in a cell viability assay.

IST-MES1 = assay type: functional, cell-based, Homo sapiens; details: ist-mes1;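 note: growth inhibition of IST-MES1 cells, measured with a cell viability assay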
Description: SANGER: Inhibition of human IST-MES1 cell growth in a cell viability assay.

JAR = assay type: functional, cell-based, Homo sapiens; details: jar;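 note: growth inhibition of human JAR cells determined with a cell viability assay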
Description: SANGER: Inhibition of human JAR cell growth in a cell viability assay.

JVM-3 = assay type: functional, cell-based, Homo sapiens; details: jvm-3;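 note: growth inhibition of human JVM-3 cells, read out with a cell viability assay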
Description: SANGER: Inhibition of human JVM-3 cell growth in a cell viability assay.

KINGS-1 = assay type: functional, cell-based, Homo sapiens; details: kings-1;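 note: cell viability assay measuring suppression of KINGS-1 cell growth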
Description: SANGER: Inhibition of human KINGS-1 cell growth in a cell viability assay.

KNS-42 = assay type: functional, cell-based, Homo sapiens; details: kns-42;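 note: growth inhibition of KNS-42 cells, read out with a cell viability assay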
Description: SANGER: Inhibition of human KNS-42 cell growth in a cell viability assay.

L-363 = assay type: functional, cell-based, Homo sapiens; details: l-363
Description: SANGER: Inhibition of human L-363 cell growth in a cell viability assay.

LC-2-ad = assay type: functional, cell-based, Homo sapiens; details: lc-2-ad;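 note: growth inhibition of human LC-2-ad cells, read out with a cell viability assay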
Description: SANGER: Inhibition of human LC-2-ad cell growth in a cell viability assay.

LS-123 = assay type: functional, cell-based, Homo sapiens; details: ls-123
Description: SANGER: Inhibition of human LS-123 cell growth in a cell viability assay.

LU-139 = assay type: functional, cell-based, Homo sapiens; details: lu-139
Description: SANGER: Inhibition of human LU-139 cell growth in a cell viability assay.

MEG-01 = assay type: functional, cell-based, Homo sapiens; details: meg-01;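 note: growth inhibition of MEG-01 cells, read out by a cell viability assay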
Description: SANGER: Inhibition of human MEG-01 cell growth in a cell viability assay.

MFH-ino = assay type: functional, cell-based, Homo sapiens; details: mfh-ino;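 note: growth inhibition of human MFH-ino cells, read out by a cell viability assay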
Description: SANGER: Inhibition of human MFH-ino cell growth in a cell viability assay.

MFM-223 = assay type: functional, cell-based, Homo sapiens; details: mfm-223
Description: SANGER: Inhibition of human MFM-223 cell growth in a cell viability assay.

MOLT-16 = assay type: functional, cell-based, Homo sapiens; details: molt-16;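 note: growth inhibition of human MOLT-16 cells, read out with a cell viability assay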
Description: SANGER: Inhibition of human MOLT-16 cell growth in a cell viability assay.

MZ2-MEL = assay type: functional, cell-based, Homo sapiens; details: mz2-mel;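 note: growth inhibition of MZ2-MEL cells read out with a cell viability assay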
Description: SANGER: Inhibition of human MZ2-MEL cell growth in a cell viability assay.

MZ7-mel = assay type: functional, cell-based, Homo sapiens; details: mz7-mel;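 note: growth inhibition of human MZ7-mel cells, measured by a cell viability assay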
Description: SANGER: Inhibition of human MZ7-mel cell growth in a cell viability assay.

NCI-H1648 = assay type: functional, cell-based, Homo sapiens; details: nci-h1648;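 note: cell viability assay measuring inhibition of NCI-H1648 cell growth, from the Sanger screening data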
Description: SANGER: Inhibition of human NCI-H1648 cell growth in a cell viability assay.

NCI-H226 = assay type: functional, cell-based, Homo sapiens; details: nci-h226;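 note: cell viability read-out used to gauge growth inhibition of the cells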
Description: SANGER: Inhibition of human NCI-H226 cell growth in a cell viability assay.

NCI-H446 = assay type: functional, cell-based, Homo sapiens; details: nci-h446;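 note: growth inhibition of NCI-H446 cells determined by a cell viability assay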
Description: SANGER: Inhibition of human NCI-H446 cell growth in a cell viability assay.

NCI-H510A = assay type: functional, cell-based, Homo sapiens; details: nci-h510a;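 note: growth inhibition of NCI-H510A cells, read out with a cell viability assay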
Description: SANGER: Inhibition of human NCI-H510A cell growth in a cell viability assay.

NCI-H720 = assay type: functional, cell-based, Homo sapiens; details: nci-h720;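 note: growth inhibition of human NCI-H720 cells determined by a cell viability assay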
Description: SANGER: Inhibition of human NCI-H720 cell growth in a cell viability assay.

NCI-N87 = assay type: functional, cell-based, Homo sapiens; details: nci-n87;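 note: growth inhibition of human NCI-N87 cells, read out with a cell viability assay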
Description: SANGER: Inhibition of human NCI-N87 cell growth in a cell viability assay.

NEC8 = assay type: functional, cell-based, Homo sapiens; details: nec8;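 note: growth inhibition of human NEC8 cells, read out by a cell viability assay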
Description: SANGER: Inhibition of human NEC8 cell growth in a cell viability assay.

NTERA-2-cl-D1 = assay type: functional, cell-based, Homo sapiens; details: ntera-2-cl-d1;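 note: inhibition of cell growth, measured with a cell viability assay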
Description: SANGER: Inhibition of human NTERA-S-cl-D1 cell growth in a cell viability assay.

OCI-AML2 = assay type: functional, cell-based, Homo sapiens; details: oci-aml2;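 note: growth inhibition of OCI-AML2 cells, read out with a cell viability assay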
Description: SANGER: Inhibition of human OCI-AML2 cell growth in a cell viability assay.

OMC-1 = assay type: functional, cell-based, Homo sapiens; details: omc-1;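 note: growth inhibition of the OMC-1 cell line, measured by a cell viability assay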
Description: SANGER: Inhibition of human OMC-1 cell growth in a cell viability assay.

OS-RC-2 = assay type: functional, cell-based, Homo sapiens; details: os-rc-2;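 note: growth inhibition of human OS-RC-2 cells, measured by a cell viability assay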
Description: SANGER: Inhibition of human OS-RC-2 cell growth in a cell viability assay.

SHP77 = assay type: functional, cell-based, Homo sapiens, SHP-77; details: shp-77;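 note: growth inhibition of human SHP-77 cells measured by a cell viability assay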
Description: SANGER: Inhibition of human SHP-77 cell growth in a cell viability assay.

SK-MEL-2 = assay type: functional, cell-based, Homo sapiens; details: sk-mel-2;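 note: growth inhibition of human SK-MEL-2 cells measured with a cell viability assay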
Description: SANGER: Inhibition of human SK-MEL-2 cell growth in a cell viability assay.

SK-N-DZ = assay type: functional, cell-based, Homo sapiens; details: sk-n-dz;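 note: growth inhibition of the cancer cell line, read out through a viability assay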
Description: SANGER: Inhibition of human SK-N-DZ cell growth in a cell viability assay.

SW872 = assay type: functional, cell-based, Homo sapiens; details: sw872;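 note: growth inhibition of SW872 cells, read out by a viability assay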
Description: SANGER: Inhibition of human SW872 cell growth in a cell viability assay.

A388 = assay type: functional, cell-based, Homo sapiens; details: a388;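 note: growth inhibition of human A388 cells, read out with a cell viability assay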
Description: SANGER: Inhibition of human A388 cell growth in a cell viability assay.

ACN = assay type: functional, cell-based, Homo sapiens; details: acn;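 note: growth inhibition of the human ACN cell line, read out via cell viability testing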
Description: SANGER: Inhibition of human ACN cell growth in a cell viability assay.

TE-12 = assay type: functional, cell-based, Homo sapiens; details: te-12;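 note: growth inhibition of TE-12 cells, read out by a cell viability assay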
Description: SANGER: Inhibition of human TE-12 cell growth in a cell viability assay.

UACC-257 = assay type: functional, cell-based, Homo sapiens; details: uacc-257
Description: SANGER: Inhibition of human UACC-257 cell growth in a cell viability assay.

no-10 = assay type: functional, cell-based, Homo sapiens;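 note: growth inhibition of no-10 cells, read out with a cell viability assay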
Description: SANGER: Inhibition of human no-10 cell growth in a cell viability assay.

COLO-320-HSR = assay type: functional, cell-based, Homo sapiens; details: colo-320-hsr;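 note: growth inhibition of COLO-320-HSR cells, determined with a cell viability assay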
Description: SANGER: Inhibition of human COLO-320-HSR cell growth in a cell viability assay.

**Q.** Which results are given for BLEOMYCIN?
**A.** IC50 (CTB-1): 0.0269 µM; IC50 (DB): 5.12 µM; IC50 (DEL): 0.48 µM; IC50 (EKVX): 413 µM; IC50 (ES5): 0.505 µM; IC50 (EW-1): 1.82 µM; IC50 (GAK): 126 µM; IC50 (GI-1): 1.2 µM; IC50 (GOTO): 0.55 µM; IC50 (HCC 2998): 0.00659 µM; IC50 (HDLM-2): 14.3 µM; IC50 (HuTu80): 0.000136 µM; IC50 (IST-MES1): 206 µM; IC50 (JAR): 206 µM; IC50 (JVM-3): 429 µM; IC50 (KINGS-1): 1270 µM; IC50 (KNS-42): 693 µM; IC50 (L-363): 187 µM; IC50 (LC-2-ad): 0.0804 µM; IC50 (LS-123): 23.4 µM; IC50 (LU-139): 3440 µM; IC50 (MEG-01): 0.395 µM; IC50 (MFH-ino): 0.00265 µM; IC50 (MFM-223): 11000 µM; IC50 (MOLT-16): 29.5 µM; IC50 (MZ2-MEL): 2.95 µM; IC50 (MZ7-mel): 0.13 µM; IC50 (NCI-H1648): 20.3 µM; IC50 (NCI-H226): 77.4 µM; IC50 (NCI-H446): 18.9 µM; IC50 (NCI-H510A): 1.09 µM; IC50 (NCI-H720): 103 µM; IC50 (NCI-N87): 2.96 µM; IC50 (NEC8): 0.0269 µM; IC50 (NTERA-2-cl-D1): 0.000139 µM; IC50 (OCI-AML2): 2.26 µM; IC50 (OMC-1): 11.9 µM; IC50 (OS-RC-2): 3.02 µM; IC50 (SHP77): 142 µM; IC50 (SK-MEL-2): 8.49 µM; IC50 (SK-N-DZ): 170 µM; IC50 (SW872): 3.45 µM; IC50 (A388): 0.877 µM; IC50 (ACN): 0.808 µM; IC50 (TE-12): 0.719 µM; IC50 (UACC-257): 234 µM; IC50 (no-10): 27.1 µM; IC50 (COLO-320-HSR): 3.43 µM
